# Measured values reported in publication PMC5945843, “Direct neurotransmitter activation of voltage-gated potassium channels” (Nature Communications, 2018).
# Where “and” joins values, the source holds several entries; their conditions need not be identical. Equal entries are not always repeated. Where two headings read alike, the source gives them in different places.
# Experiments:
# [1] = tested on: water-injected Xenopus laevis oocytes; experiment: TEVC of water-injected oocytes (endogenous currents, EM); type: cell-based
# From the text: Chemicals were sourced from Sigma. […] […].
# KCNA1 (Kv1.1) = KCNA1 (Kv1.1) (Homo sapiens, UniProt Q09470); experiment: TEVC in Xenopus oocytes; type: cell-based; settings: for Slope: Ctrl 6.2 ± 0.4; for Normalized tail current V0.5: Ctrl -29.8 ± 0.69
# KCNA1 (Kv1.1), sequence (Q09470 whole entry): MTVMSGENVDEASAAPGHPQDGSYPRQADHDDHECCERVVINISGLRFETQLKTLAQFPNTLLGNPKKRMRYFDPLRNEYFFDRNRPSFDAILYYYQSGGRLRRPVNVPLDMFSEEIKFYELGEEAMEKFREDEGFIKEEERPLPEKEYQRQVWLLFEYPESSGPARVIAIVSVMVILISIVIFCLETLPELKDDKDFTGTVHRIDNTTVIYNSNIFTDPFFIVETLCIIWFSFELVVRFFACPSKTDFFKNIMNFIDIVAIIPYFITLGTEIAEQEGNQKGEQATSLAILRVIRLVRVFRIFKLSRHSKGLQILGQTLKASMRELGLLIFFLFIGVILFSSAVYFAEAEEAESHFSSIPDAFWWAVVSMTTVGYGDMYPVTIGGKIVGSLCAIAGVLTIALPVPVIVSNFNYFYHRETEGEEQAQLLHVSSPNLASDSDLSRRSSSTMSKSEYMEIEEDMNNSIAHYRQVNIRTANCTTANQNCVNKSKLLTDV
# From the text: Chemicals were sourced from Sigma.
# [2] = biological target: KCNQ3* (expression-optimized KCNQ3-A315T mutant) (Homo sapiens, UniProt O43525, A315T); settings: for Slope: Ctrl 4.5 ± 0.9; for Normalized tail current V0.5: Ctrl -51.4 ± 1.9; for Non-normalized tail current V0.5: Ctrl -47.5 ± 4.4
# From the text: (§4) cRNA transcripts encoding human KCNQ1, KCNQ2, KCNQ3, KCNQ4, KCNQ5, KCNA1, or KCNE1 were generated by in vitro transcription using the T7 polymerase mMessage mMachine kit (Thermo Fisher Scientific), after vector linearization, from complementary DNA (cDNA) sub-cloned into plasmids incorporating Xenopus laevis β-globin 5′ and 3′ untranslated regions flanking the coding region to enhance translation and cRNA stability. cRNA was quantified by spectrophotometry. […] Defolliculated stage V and VI Xenopus laevis oocytes (Ecocyte Bioscience, Austin, TX) were injected with Kv channel α subunit cRNAs (5–10 ng).
# (§5) Oocytes were placed in a small-volume oocyte bath (Warner) and viewed with a dissection microscope. Chemicals were sourced from Sigma. Bath solution was (in mM): 96 NaCl, 4 KCl, 1 MgCl2, 1 CaCl2, 10 HEPES (pH 7.6). […] Valeric acid was stored as a 5 mM stock in Ringer’s solution at 4 °C and diluted to working concentrations each experimental day. β-hydroxybutyric acid was stored at 4 °C as a 480 mM stock in 100% ethanol and diluted to working concentrations each experimental day. All compounds were introduced to the recording bath via gravity perfusion at a constant flow of 1 ml per min for 3 min prior to recording. Pipettes were of 1–2 MΩ resistance when filled with 3 M KCl. Currents were recorded in response to pulses between −80 mV and +40 mV at 20 mV intervals, or a single pulse to +40 mV, from a holding potential of −80 mV, to yield current-voltage relationships, current magnitude, and for quantifying activation rate. Deactivation was recorded at −80 mV after a single activating pulse to +40 mV, from a holding potential of −80 mV. […] TEVC data analysis was performed with Clampfit (Molecular Devices) and Graphpad Prism software (GraphPad, San Diego, CA, USA); values are stated as mean ± SEM. Normalized tail currents were plotted versus prepulse voltage and fitted with a single Boltzmann function:1 g=(A1-A2)/1+expV1/2-V∕VS+A2, where g is the normalized tail conductance, A1 is the initial value at −∞, A2 is the final value at +∞, V1/2 is the half-maximal voltage of activation, and VS the slope factor. Activation and deactivation kinetics were fitted with single exponential functions.
# [3] = biological target: homomeric wild-type human KCNQ3 (Homo sapiens, UniProt O43525); experiment: 3H-GABA radioligand binding (single concentration, cold competition, saturation) in Xenopus oocytes; settings: cold (unlabeled) GABA 1 mM
# homomeric wild-type human KCNQ3, sequence (O43525 whole entry): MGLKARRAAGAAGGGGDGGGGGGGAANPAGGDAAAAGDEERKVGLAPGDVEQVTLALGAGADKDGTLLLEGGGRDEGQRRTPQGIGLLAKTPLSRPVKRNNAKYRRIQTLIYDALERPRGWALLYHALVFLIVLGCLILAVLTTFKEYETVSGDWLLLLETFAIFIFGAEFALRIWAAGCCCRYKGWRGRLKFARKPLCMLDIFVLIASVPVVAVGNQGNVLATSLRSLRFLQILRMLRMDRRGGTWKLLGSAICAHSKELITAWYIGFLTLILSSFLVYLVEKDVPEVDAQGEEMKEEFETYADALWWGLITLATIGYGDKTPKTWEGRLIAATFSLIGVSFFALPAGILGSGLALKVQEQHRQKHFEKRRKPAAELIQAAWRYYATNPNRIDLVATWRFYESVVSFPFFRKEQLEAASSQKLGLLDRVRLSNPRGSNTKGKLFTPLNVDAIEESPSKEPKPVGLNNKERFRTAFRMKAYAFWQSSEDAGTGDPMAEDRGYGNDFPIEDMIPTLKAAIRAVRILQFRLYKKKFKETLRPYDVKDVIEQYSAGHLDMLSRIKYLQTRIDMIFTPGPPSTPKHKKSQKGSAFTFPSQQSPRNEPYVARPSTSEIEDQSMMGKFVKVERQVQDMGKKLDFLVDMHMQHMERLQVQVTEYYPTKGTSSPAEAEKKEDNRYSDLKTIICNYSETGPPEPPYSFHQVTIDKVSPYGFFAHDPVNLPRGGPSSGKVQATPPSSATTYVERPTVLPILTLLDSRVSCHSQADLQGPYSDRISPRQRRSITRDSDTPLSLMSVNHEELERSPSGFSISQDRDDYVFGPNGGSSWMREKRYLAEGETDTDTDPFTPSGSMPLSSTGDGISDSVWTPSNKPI
# Description: Defolliculated stage V and VI Xenopus laevis oocytes (Ecocyte Bioscience, Austin, TX) were injected with Kv channel α subunit cRNAs (5–10 ng).
# Oocytes were then washed four times in 16 °C ND96, then transferred to individual wells in a 96-well plate and lysed in 0.2% SDS in ND96. Each oocyte lysate was transferred to a scintillation vial containing 5 ml cytoscint scintillation cocktail fluid (MP Biomedicals, Santa Ana, CA). Vials were capped, shaken, and then allowed to sit at room temperature for at least 30 min before scintillation counting in a Beckmann Coulter LS6500 liquid scintillation counter. […] Oocytes were next incubated in 1 ml per group homogenization buffer (in mM, 150 NaCl, 2 CaCl2, 20 Tris, 2% Nonidet P-40) with 2% protease inhibitor cocktail (Pierce) and then lysed with a 20 ml pipette tip, vortexed, centrifuged at 4000 r.p.m. (10 min, 4 °C). The supernatant was mixed in Eppendorf tubes end-over-end overnight at 4 °C with high-capacity streptavidin agarose beads (Thermo Fisher, Huntington Beach, CA) (20 µl per group).
# For the binding competition assay, the control group was treated as before. […] Each oocyte lysate was transferred to a scintillation vial containing 5 ml cytoscint scintillation cocktail fluid (MP Biomedicals). […] Bmax and Kd values were calculated using automated nonlinear regression analysis in GraphPad prism.
# KCNQ1 = KCNQ1 (Homo sapiens, UniProt P51787); experiment: Two-electrode voltage clamp (TEVC) in Xenopus oocytes
# From the text: as §4
# Oocytes were placed in a small-volume oocyte bath (Warner) and viewed with a dissection microscope. Chemicals were sourced from Sigma. Bath solution was (in mM): 96 NaCl, 4 KCl, 1 MgCl2, 1 CaCl2, 10 HEPES (pH 7.6). […] Valeric acid was stored as a 5 mM stock in Ringer’s solution at 4 °C and diluted to working concentrations each experimental day. β-hydroxybutyric acid was stored at 4 °C as a 480 mM stock in 100% ethanol and diluted to working concentrations each experimental day. All compounds were introduced to the recording bath via gravity perfusion at a constant flow of 1 ml per min for 3 min prior to recording. Pipettes were of 1–2 MΩ resistance when filled with 3 M KCl. Currents were recorded in response to pulses between −80 mV and +40 mV at 20 mV intervals, or a single pulse to +40 mV, from a holding potential of −80 mV, to yield current-voltage relationships, current magnitude, and for quantifying activation rate. Deactivation was recorded at −80 mV after a single activating pulse to +40 mV, from a holding potential of −80 mV. For wortmannin studies, oocytes were incubated in 30 µM wortmannin for 3 h at 16 °C prior to recording. TEVC data analysis was performed with Clampfit (Molecular Devices) and Graphpad Prism software (GraphPad, San Diego, CA, USA); values are stated as mean ± SEM. […]
# [4] = tested on: native M-current in PC12 cells; experiment: Whole-cell patch clamp of NGF-differentiated PC12 cells; type: cell-based, rat; settings: 100 µM GABA + 100 µM picrotoxin + 10 µM CGP55845
# Description: (§1) CHO cells (ATCC) were seeded on poly-L-lysine-treated glass coverslips in 24-well plates and transfected the next day using 0.5 µg each of mouse KCNQ2 and KCNQ3 cDNA in a CMV vector per well in normal media (DMEM with 10% FBS and 1% penicillin/streptomycin). The transfection reagent used was TransIT-LT1 (Mirus Bio LLC, Madison, WI, USA) and cells were patched 48–72 h post transfection. […] Media was replenished every 3 days and cultures were split once a week. […] Cell culture plastic ware and reagents were purchased from VWR and Fisher Scientific unless otherwise stated.
# (§2) For both CHO cells and PC12 cells, currents were recorded in whole-cell mode at room temperature (22–25 °C) with 3–6 MΩ borosilicate glass electrodes backfilled with solution containing (in mM): 90 K acetate, 20 KCl, 40 HEPES, 3 MgCl2, 1 CaCl2, 3 EGTA-KOH, 2 MgATP; pH 7.2.
# (§3) The pClamp8 (Molecular Devices) software package was used for data acquisition and Clampfit was used for analysis, along with Graphpad Prism 7.0 (Graphpad).
# KCNQ1-KCNE1 = KCNQ1-KCNE1 (Homo sapiens, UniProt P51787); experiment: TEVC and resting membrane potential in Xenopus oocytes; type: cell-based
# From the text: as §4, §5
# [5] = tested on: native M-current in mouse DRG neurons; experiment: Perforated patch-clamp of dorsal root ganglion neurons; type: cell-based; settings: 100 µM GABA
# Description: Adult male mice were purchased from Jackson Labs and then housed and used according to a protocol approved by the Institutional Animal Care and Use Committee of University of California, Irvine, and consistent with recommendations in the NIH Guide for the Care and Use of Laboratory Animals (8th edition, 2011). […]. DRG neurons were then cultured on poly-L-lysine and laminin-coated plastic coverslips in RPMI 1640 with 10% horse serum and 1% penicillin/streptomycin at 37 °C for 1–4 days before electrophysiological recordings were performed using perforated patch clamp. Amphotericin B (VWR, Radnor, PA) was dissolved in DMSO at 5 mg/ml (stock solution), then diluted to 150–200 µg/ml in intracellular solution and sonicated with a probe sonicator on ice for 5 s, kept at room temperature in the dark, and replaced every hour with a fresh solution from the stock. The working amphotericin solution was backfilled into borosilicate glass electrodes (3–5 MΩ) previously tip-filled to ~0.5 mm with intracellular solution lacking amphotericin B, immediately prior to sealing onto individual neurons. After whole-cell configuration was achieved and capacitance stabilized, whole-cell recordings were performed essentially as described in the prior paragraph, with the following differences: neurons were held at −20 mV to inactivate other channels before the test pulses; offline leak subtraction was performed.
# KCNQ4 = KCNQ4 (Homo sapiens, UniProt P56696); experiment: TEVC in Xenopus oocytes; type: cell-based; settings: for Non-normalized tail current V0.5: Ctrl 8.6 ± 4.3; for Normalized tail current V0.5: Ctrl -8.7 ± 0.8
# From the text: as §4, §5
# [6] = biological target: T1, KCNQ2/3 channels expressed in CHO cells (Mus musculus, UniProt Q8K3F6+Q9Z351); experiment: Whole-cell patch clamp of transfected CHO cells; type: cell-based; settings: 100 µM GABA
# T1 construct: expressed in transfected cells; host or cells: CHO cells (ATCC), transient transfection with TransIT-LT1
# Description: as §1, §2, §3
# KCNQ5 = KCNQ5 (Homo sapiens, UniProt Q9NR82); experiment: TEVC in Xenopus oocytes; type: cell-based; settings: for Slope: Ctrl 9.6 ± 1.9; for Normalized tail current V0.5: Ctrl -41.7 ± 1.5; for Non-normalized tail current V0.5: Ctrl -[…]
# From the text: as §4, §5
# [7] = especially at subthreshold potentials
smiles,measurement,setting,value
"NCCCC(=O)O [GABA, γ-aminobutyric acid]",effect on endogenous currents or resting membrane potential,[1]; GABA 100 µM,no effect
same,effect on water-injected oocytes,[1]; GABA 1 mM,neither did increasing GABA to 1 mM produce any noticeable effects
same,Slope,KCNA1 (Kv1.1); 0.1 µM GABA,6.4 ± 0.5 mV
same,Normalized tail current V0.5,KCNA1 (Kv1.1); 0.1 µM GABA,-29.3 ± 0.88 mV
same,Slope,KCNA1 (Kv1.1); 1 µM GABA,6.1 ± 0.5 mV
same,Normalized tail current V0.5,KCNA1 (Kv1.1); 1 µM GABA,-28.4 ± 0.89 mV
same,Slope,KCNA1 (Kv1.1); 10 µM GABA,6.1 ± 0.5 mV
same,Normalized tail current V0.5,KCNA1 (Kv1.1); 10 µM GABA,-27.6 ± 0.82 mV
same,Slope,KCNA1 (Kv1.1); 100 µM GABA,6.2 ± 0.4 mV
same,Normalized tail current V0.5,KCNA1 (Kv1.1); 100 µM GABA,-27.2 ± 0.67 mV
same,Slope,KCNA1 (Kv1.1); 1 mM GABA,6.4 ± 0.6 mV
same,Normalized tail current V0.5,KCNA1 (Kv1.1); 1 mM GABA,-27.3 ± 0.93 mV
same,effect on peak current or normalized tail current,KCNA1 (Kv1.1); GABA 1 mM,no effect
same,"efficacy of channel activation, KCNQ3* compared to KCNQ5",[2],more than threefold greater
same,Slope,[2]; 0.1 µM GABA,4.6 ± 0.9 mV
same,Normalized tail current V0.5,[2]; 0.1 µM GABA,-54.2 ± 1.5 mV
same,Slope,[2]; 1 µM GABA,4.3 ± 0.8 mV
same,Slope,[2]; 10 µM GABA,4.3 ± 3.5 mV
same,Non-normalized tail current V0.5,[2]; 10 µM GABA,-58.4 ± 2.7 mV
same,Normalized tail current V0.5,[2]; 10 µM GABA,-58.9 ± 1.0 mV
same,Slope,[2]; 100 µM GABA,4.8 ± 3.0 mV
same,Non-normalized tail current V0.5,[2]; 100 µM GABA,-59.4 ± 2.8 mV
same,Normalized tail current V0.5,[2]; 100 µM GABA,-59.8 ± 0.9 mV
same,Slope,[2]; 1 mM GABA,4.7 ± 3.3 mV
same,Non-normalized tail current V0.5,[2]; 1 mM GABA,-59.3 ± 2.5 mV
same,Normalized tail current V0.5,[2]; 1 mM GABA,-59.6 ± 0.9 mV
same,effect on channel,[2]; [7],activates
same,competition of 3H-GABA binding,[3],outcompeted
same,GABA sensitivity of channel activity,KCNQ1,relatively GABA-insensitive
same,Non-normalized tail current V0.5,"KCNQ1; 100 µM GABA, Ctrl -30.1 ± 2.2",-32.6 ± 1.9 mV
same,Normalized tail current V0.5,"KCNQ1; 100 µM GABA, Ctrl -34.1 ± 0.9",-34.2 ± 0.8 mV
same,Slope,[4]; blockers alone 17.4 ± 3.0,16.0 ± 3.2 mV
same,Normalized tail current V0.5,[4]; blockers alone -7.1 ± 7.6,-20.6 ± 4.9 mV
same,Normalized tail current V0.5,"KCNQ1-KCNE1; 100 µM GABA, Ctrl 6.1 ± 0.8",3.3 ± 1.2 mV
same,Non-normalized tail current V0.5,"KCNQ1-KCNE1; 100 µM GABA, Ctrl 6.3 ± 2.6",3.1 ± 2.7 mV
same,Slope,"KCNQ1-KCNE1; 100 µM GABA, Ctrl 14 ± 0.7",13.2 ± 0.9 mV
same,effect on KCNQ1-KCNE1 activity,KCNQ1-KCNE1; GABA 100 µM,no effect
same,effect on resting membrane potential (EM),"KCNQ1-KCNE1; GABA 100 µM, unclamped oocytes",does not alter
same,decrease of deactivating current at −60 mV,[5],~ 25%
same,mean GABA-dependent change in current,[5]; at −20 mV,no mean change
same,mean GABA-dependent current increase,"[5]; at −60 mV, picrotoxin + CGP55845 present",threefold
same,GABA sensitivity of channel activity,KCNQ4,relatively GABA-insensitive
same,Non-normalized tail current V0.5,KCNQ4; 0.1 µM GABA,-8.8 ± 4.3 mV
same,Normalized tail current V0.5,KCNQ4; 0.1 µM GABA,-9.6 ± 0.7 mV
same,Non-normalized tail current V0.5,KCNQ4; 1 µM GABA,-9.0 ± 4.3 mV
same,Normalized tail current V0.5,KCNQ4; 1 µM GABA,-9.6 ± 0.8 mV
same,Non-normalized tail current V0.5,KCNQ4; 10 µM GABA,-9.3 ± 3.7 mV
same,Normalized tail current V0.5,KCNQ4; 10 µM GABA,-9.8 ± 0.8 mV
same,Non-normalized tail current V0.5,KCNQ4; 100 µM GABA,-9.0 ± 3.8 mV
same,Normalized tail current V0.5,KCNQ4; 100 µM GABA,-10.3 ± 0.8 mV
same,Non-normalized tail current V0.5,KCNQ4; 1 mM GABA,-8.4 ± 3.4 mV
same,Normalized tail current V0.5,KCNQ4; 1 mM GABA,-8.8 ± 0.8 mV
same,Slope,[6]; Ctrl 14.3 ± 1.6,16.2 ± 3.0 mV
same,Normalized tail current V0.5,[6]; Ctrl -2.9 ± 2.7,-17.5 ± 3.7 mV and −17.5 mV
same,Slope,KCNQ5; 0.001 µM GABA,9.4 ± 4.3 mV
same,Normalized tail current V0.5,KCNQ5; 0.001 µM GABA,-41.9 ± 2.9 mV
same,Non-normalized tail current V0.5,KCNQ5; 0.001 µM GABA,-41.8 ± 2.8 mV
same,Slope,KCNQ5; 0.01 µM GABA,7.6 ± 2.4 mV
same,Normalized tail current V0.5,KCNQ5; 0.01 µM GABA,-50.1 ± 2.9 mV
same,Non-normalized tail current V0.5,KCNQ5; 0.01 µM GABA,-49.5 ± 2.5 mV
same,Slope,KCNQ5; 0.1 µM GABA,7.4 ± 1.2 mV
same,Normalized tail current V0.5,KCNQ5; 0.1 µM GABA,-53.9 ± 1.7 mV
same,Non-normalized tail current V0.5,KCNQ5; 0.1 µM GABA,-51.3 ± 2.1 mV
same,Slope,KCNQ5; 1 µM GABA,7.6 ± 1.2 mV
same,Normalized tail current V0.5,KCNQ5; 1 µM GABA,-54.2 ± 1.6 mV
same,Non-normalized tail current V0.5,KCNQ5; 1 µM GABA,-51.2 ± 2.6 mV
same,Slope,KCNQ5; 10 µM GABA,8.4 ± 1.4 mV
same,Normalized tail current V0.5,KCNQ5; 10 µM GABA,-57.0 ± 1.8 mV
same,Non-normalized tail current V0.5,KCNQ5; 10 µM GABA,-54.5 ± 2.3 mV
same,Slope,KCNQ5; 100 µM GABA,8.5 ± 1.5 mV
same,Normalized tail current V0.5,KCNQ5; 100 µM GABA,-57.4 ± 1.8 mV
same,Non-normalized tail current V0.5,KCNQ5; 100 µM GABA,-54.5 ± 2.7 mV
same,Slope,KCNQ5; 1 mM GABA,8.8 ± 1.5 mV
same,Normalized tail current V0.5,KCNQ5; 1 mM GABA,-58.3 ± 1.8 mV
same,Non-normalized tail current V0.5,KCNQ5; 1 mM GABA,-56.4 ± 2.4 mV
same,higher GABA sensitivity of KCNQ5 than KCNQ3*,KCNQ5; EC50 ratio at −60 mV,17 fold
same,EC50,KCNQ5; at −60 mV,60 ± 10 nM
same,effect on channel,KCNQ5; [7],activates
